{"source": "ChEMBL document CHEMBL3826900", "about": "“Inhibitors for the bacterial ectonucleotidase Lp1NTPDase from Legionella pneumophila” (Bioorg Med Chem, 2016)", "key": {"[1]": {"test_system": "Legionella pneumophila 130b", "test": "Inhibition of recombinant Legionella pneumophila 130b His6-tagged NTPDase (41 to 393 residues) expressed in Escherichia coli BL21(DE3) cells using ADP as substrate at 30 uM incubated for 10 mins by capillary electrophoresis method relative to control"}, "[2]": {"test": "Inhibition of recombinant Legionella pneumophila 130b His6-tagged NTPDase (41 to 393 residues) expressed in Escherichia coli BL21(DE3) cells using ADP as substrate incubated for 10 mins by capillary electrophoresis method"}, "[3]": {"test": "Inhibition of recombinant Legionella pneumophila 130b His6-tagged NTPDase (41 to 393 residues) expressed in Escherichia coli BL21(DE3) cells using ADP as substrate incubated for 10 mins by Cheng-Prusoff equation analysis"}, "[4]": {"test_system": "Legionella pneumophila 130b", "test": "Competitive inhibition of recombinant Legionella pneumophila 130b His6-tagged NTPDase (41 to 393 residues) expressed in Escherichia coli BL21(DE3) cells at 3 to 6 uM incubated for 10 mins in presence of varying levels of ADP by Lineweaver-Burk plot analysis"}, "[5]": {"target": "T1, Ectonucleoside triphosphate diphosphohydrolase 1 (Homo sapiens, UniProt P49961)", "T1 sequence (P49961 whole entry)": "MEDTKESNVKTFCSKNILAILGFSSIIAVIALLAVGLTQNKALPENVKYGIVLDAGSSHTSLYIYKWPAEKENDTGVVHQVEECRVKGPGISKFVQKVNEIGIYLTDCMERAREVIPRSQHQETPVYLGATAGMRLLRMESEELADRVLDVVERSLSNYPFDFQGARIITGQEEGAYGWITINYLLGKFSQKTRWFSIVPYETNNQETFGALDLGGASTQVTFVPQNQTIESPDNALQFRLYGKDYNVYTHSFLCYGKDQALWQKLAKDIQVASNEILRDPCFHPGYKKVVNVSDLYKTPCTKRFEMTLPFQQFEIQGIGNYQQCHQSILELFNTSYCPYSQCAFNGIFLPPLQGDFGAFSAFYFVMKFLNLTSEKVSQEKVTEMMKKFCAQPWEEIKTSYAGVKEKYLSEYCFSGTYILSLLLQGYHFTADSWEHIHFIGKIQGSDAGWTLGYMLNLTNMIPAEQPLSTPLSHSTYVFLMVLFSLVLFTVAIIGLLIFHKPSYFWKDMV", "test": "Inhibition of recombinant human NTPDase1 expressed in CHO cells using ADP as substrate incubated for 10 mins by capillary electrophoresis method"}, "[6]": {"target": "T2, Ectonucleoside triphosphate diphosphohydrolase 2 (Homo sapiens, UniProt Q9Y5L3)", "T2 sequence (Q9Y5L3 whole entry)": "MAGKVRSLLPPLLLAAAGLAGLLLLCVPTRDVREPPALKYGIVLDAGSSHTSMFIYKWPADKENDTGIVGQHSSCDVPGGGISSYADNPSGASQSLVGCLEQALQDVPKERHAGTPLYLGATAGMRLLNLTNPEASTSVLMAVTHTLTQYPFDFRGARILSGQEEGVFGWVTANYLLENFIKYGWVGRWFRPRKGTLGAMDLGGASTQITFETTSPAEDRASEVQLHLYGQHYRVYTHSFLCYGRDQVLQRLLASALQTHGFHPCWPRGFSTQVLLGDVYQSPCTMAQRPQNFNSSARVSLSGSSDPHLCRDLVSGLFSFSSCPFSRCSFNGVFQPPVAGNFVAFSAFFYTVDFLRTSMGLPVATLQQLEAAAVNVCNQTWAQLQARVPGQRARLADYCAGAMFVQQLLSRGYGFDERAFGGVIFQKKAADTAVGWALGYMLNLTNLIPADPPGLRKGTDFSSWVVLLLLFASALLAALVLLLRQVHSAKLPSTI", "test": "Inhibition of recombinant human NTPDase2 expressed in CHO cells using ADP as substrate incubated for 10 mins by capillary electrophoresis method"}, "[7]": {"target": "T3, Ectonucleoside triphosphate diphosphohydrolase 3 (Homo sapiens) (UniProt O75355)", "T3 sequence (whole entry)": "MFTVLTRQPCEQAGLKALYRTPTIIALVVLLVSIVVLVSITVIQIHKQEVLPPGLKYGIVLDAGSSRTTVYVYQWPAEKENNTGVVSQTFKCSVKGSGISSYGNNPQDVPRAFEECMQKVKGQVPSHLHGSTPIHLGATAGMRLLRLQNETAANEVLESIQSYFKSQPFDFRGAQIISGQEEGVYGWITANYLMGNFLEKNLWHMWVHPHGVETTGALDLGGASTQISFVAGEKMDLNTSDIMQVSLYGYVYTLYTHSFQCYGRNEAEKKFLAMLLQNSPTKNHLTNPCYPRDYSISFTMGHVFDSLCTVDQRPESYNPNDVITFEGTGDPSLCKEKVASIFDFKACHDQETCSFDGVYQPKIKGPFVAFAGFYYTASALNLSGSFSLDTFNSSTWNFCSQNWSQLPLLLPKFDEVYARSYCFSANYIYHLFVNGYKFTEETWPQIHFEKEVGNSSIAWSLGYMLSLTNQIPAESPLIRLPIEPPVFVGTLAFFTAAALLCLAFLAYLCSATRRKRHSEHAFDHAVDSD", "test": "Inhibition of recombinant human NTPDase3 expressed in mouse NS0 cells using ADP as substrate at 30 uM incubated for 10 mins by capillary electrophoresis method relative to control"}, "[8]": {"test_system": "Legionella pneumophila 130b", "settings": "3 uM"}, "[9]": {"test_system": "Legionella pneumophila 130b", "settings": "6 uM"}, "[10]": {"test_system": "Legionella pneumophila 130b", "settings": "3 uM", "remark": "listed apart in the source"}, "[11]": {"test_system": "Legionella pneumophila 130b", "settings": "6 uM", "remark": "listed apart in the source"}, "[12]": {"test": "Inhibition of Legionella pneumophila NTPDase"}}, "note": "Activity calls are given as the source filed them. The rule behind the calls is not given here."}
{"compound": "CCCNc1cc(S(=O)(=O)O)c(N)c2c1C(=O)c1ccccc1C2=O", "values": [{"measurement": "inhibition", "setting": "[1]", "result": "inactive"}]}
{"compound": "Cc1ccc2ccccc2c1Nc1cc(S(=O)(=O)O)c(N)c2c1C(=O)c1ccccc1C2=O", "values": [{"measurement": "inhibition", "setting": "[1]", "result": 76, "unit": "%"}, {"measurement": "IC50", "setting": "[2]", "result": 13.6, "unit": "µM"}, {"measurement": "Ki", "setting": "[3]", "result": 9.58, "unit": "µM"}]}
{"compound": "Nc1c(S(=O)(=O)O)cc(NCCc2ccccc2)c2c1C(=O)c1ccccc1C2=O", "values": [{"measurement": "inhibition", "setting": "[1]", "result": "inactive"}]}
{"compound": "Nc1c(S(=O)(=O)O)cc(Nc2ccc3ccccc3c2)c2c1C(=O)c1ccccc1C2=O", "values": [{"measurement": "inhibition", "setting": "[1]", "result": 51, "unit": "%"}]}
{"compound": "Nc1c(S(=O)(=O)O)cc(Nc2ccc(Nc3nc(Cl)nc(Nc4ccccc4S(=O)(=O)O)n3)c(S(=O)(=O)O)c2)c2c1C(=O)c1ccccc1C2=O", "values": [{"measurement": "inhibition", "setting": "[1]", "result": 45, "unit": "%"}]}
{"compound": "Cc1cc(C)c(Nc2cc(S(=O)(=O)O)c(N)c3c2C(=O)c2ccccc2C3=O)c(C)c1", "values": [{"measurement": "inhibition", "setting": "[1]", "result": 44, "unit": "%"}]}
{"compound": "Nc1c(S(=O)(=O)O)cc(Nc2cccc([N+](=O)[O-])c2)c2c1C(=O)c1ccccc1C2=O", "values": [{"measurement": "inhibition", "setting": "[1]", "result": 44, "unit": "%"}]}
{"compound": "Nc1c(S(=O)(=O)O)cc(Nc2cc3ccccc3c3ccccc23)c2c1C(=O)c1ccccc1C2=O", "values": [{"measurement": "inhibition", "setting": "[1]", "result": 90, "unit": "%"}, {"measurement": "IC50", "setting": "[2]", "result": 4.24, "unit": "µM"}, {"measurement": "Ki", "setting": "[3]", "result": 2.99, "unit": "µM"}, {"measurement": "inhibition", "setting": "[4]", "result": "Active"}, {"measurement": "IC50", "setting": "[5]", "result": 20, "unit": "µM"}, {"measurement": "IC50", "setting": "[6]", "result": 3, "unit": "µM"}, {"measurement": "inhibition", "setting": "[7]", "result": 18, "unit": "%"}, {"measurement": "Km", "setting": "[8]", "result": 623, "unit": "µM"}, {"measurement": "Km", "setting": "[9]", "result": 710, "unit": "µM"}, {"measurement": "Vmax", "setting": "[10]", "result": 327, "unit": "µmol/min/mg"}, {"measurement": "Vmax", "setting": "[11]", "result": 272, "unit": "µmol/min/mg"}]}
{"compound": "Nc1c(S(=O)(=O)O)cc(Nc2ccc(Cl)cc2)c2c1C(=O)c1ccccc1C2=O", "values": [{"measurement": "inhibition", "setting": "[1]", "result": 66, "unit": "%"}, {"measurement": "IC50", "setting": "[2]", "result": 17.6, "unit": "µM"}, {"measurement": "Ki", "setting": "[3]", "result": 12.4, "unit": "µM"}]}
{"compound": "Nc1c(S(=O)(=O)O)cc(Nc2cccc3c(S(=O)(=O)O)cccc23)c2c1C(=O)c1ccccc1C2=O", "values": [{"measurement": "inhibition", "setting": "[1]", "result": 26, "unit": "%"}]}
{"compound": "Nc1c(S(=O)(=O)O)cc(Nc2cccc3cc(S(=O)(=O)O)ccc23)c2c1C(=O)c1ccccc1C2=O", "values": [{"measurement": "inhibition", "setting": "[1]", "result": 30, "unit": "%"}]}
{"compound": "Nc1c(S(=O)(=O)O)cc(Nc2ccccc2F)c2c1C(=O)c1ccccc1C2=O", "values": [{"measurement": "inhibition", "setting": "[1]", "result": "inactive"}]}
{"compound": "Nc1c(S(=O)(=O)O)cc(NC2CCCCC2)c2c1C(=O)c1ccccc1C2=O", "values": [{"measurement": "inhibition", "setting": "[1]", "result": 22, "unit": "%"}]}
{"compound": "COc1ccccc1Oc1ccc(Nc2cc(S(=O)(=O)O)c(N)c3c2C(=O)c2ccccc2C3=O)cc1", "values": [{"measurement": "inhibition", "setting": "[1]", "result": 28, "unit": "%"}]}
{"compound": "Cc1cccc(Nc2cc(S(=O)(=O)O)c(N)c3c2C(=O)c2ccccc2C3=O)c1", "values": [{"measurement": "inhibition", "setting": "[1]", "result": 53, "unit": "%"}]}
{"compound": "Nc1c(S(=O)(=O)O)cc(Nc2ccc3cc(C(=O)O)ccc3c2)c2c1C(=O)c1ccccc1C2=O", "values": [{"measurement": "inhibition", "setting": "[1]", "result": 32, "unit": "%"}]}
{"compound": "Nc1c(S(=O)(=O)O)cc(Nc2ccc(Nc3nc(Cl)nc(Cl)n3)c(S(=O)(=O)O)c2)c2c1C(=O)c1ccccc1C2=O", "values": [{"measurement": "inhibition", "setting": "[1]", "result": 8, "unit": "%"}]}
{"compound": "Nc1c(S(=O)(=O)O)cc(Nc2cccc(Br)c2)c2c1C(=O)c1ccccc1C2=O", "values": [{"measurement": "inhibition", "setting": "[1]", "result": 44, "unit": "%"}]}
{"compound": "Nc1c(S(=O)(=O)O)cc(Nc2cccc3ccccc23)c2c1C(=O)c1ccccc1C2=O", "values": [{"measurement": "inhibition", "setting": "[1]", "result": 62, "unit": "%"}, {"measurement": "IC50", "setting": "[2]", "result": 12.2, "unit": "µM"}, {"measurement": "Ki", "setting": "[3]", "result": 8.59, "unit": "µM"}]}
{"compound": "Nc1c(S(=O)(=O)O)cc(Nc2ccccc2)c2c1C(=O)c1ccccc1C2=O", "values": [{"measurement": "inhibition", "setting": "[1]", "result": 31, "unit": "%"}]}
{"compound": "CCN(CC)c1ncnc2c1ncn2[C@@H]1O[C@H](COP(=O)(O)OP(=O)(O)OC(Br)(Br)P(=O)(O)O)[C@@H](O)[C@H]1O", "values": [{"measurement": "Ki", "setting": "[12]", "result": 500, "unit": "µM"}]}
{"compound": "CCOP(=O)(Cc1ccc(Nc2cc(S(=O)(=O)O)c(N)c3c2C(=O)c2ccccc2C3=O)cc1)OCC", "values": [{"measurement": "inhibition", "setting": "[1]", "result": "inactive"}]}
{"compound": "Cc1ccccc1Nc1cc(S(=O)(=O)O)c(N)c2c1C(=O)c1ccccc1C2=O", "values": [{"measurement": "inhibition", "setting": "[1]", "result": 44, "unit": "%"}]}
{"compound": "CCc1ccccc1Nc1cc(S(=O)(=O)O)c(N)c2c1C(=O)c1ccccc1C2=O", "values": [{"measurement": "inhibition", "setting": "[1]", "result": 39, "unit": "%"}]}
